{"source": "patent US6344217B1", "about": "“Putamen OVI” (priority 1994, dated 2002)", "key": {"Male Wistar rats [1]": {"system": "Male Wistar rats", "assay": "Clinical-chemical serum parameters after 7-day treatment of rats", "format": "in vivo, rat", "procedure": "(§1) Male Wistar rats having an average body weight of 322.5 g were kept under conventional conditions at a room temperature of 21±1° C., a relative atmospheric humidity of about 60% and a 12 hour day/night cycle. Prior to the start of the experiment, they where subjected to an acclimatization to those keeping conditions for 12 days.\n(§2) Feeding was performed with the pelletized standard diet Altromin C 1000, Misch. Nr. 100 (Altrogge). The animals were given tap water ad libidum as drinking water.\n(§3) 1. Coated tablet core granules, micronized with putamen ovi; 1 coated tablet core aar® os with 640 mg contains 440 mg of putamen ovi, micronized, corresponding to 160 mg of calcium; Dosage form: Putamen ovi, coated tablet core granules, 146 mg (≡100 mg of putamen ovi, micronized≈36.5 mg of Ca) is suspended in 2 ml of dist. water (POS), 0.5 ml (POS)≡9.125 mg of Ca (PO)/[…]\n(§4) The suspension were freshly prepared immediately before the administration and homogeneously administered. The control animals were given physiological saline in an equivalent volume.\nParameters such as enzymes, glucose, lipids, electrolytes, creatinin, urea and protein are detected selectively, method-oriented, photometrically or ion-selectively using the analyzer Cobas Mira. The supplemental report furnishes analysis-specific data of quality control and statistics.\nThe following clinical-chemical metabolic measurement values were analyzed in a combined method-specific manner: Bilirubin, creatinin, urea, glutamate oxalacetate transaminase (GOT), glutamate pyruvate transaminase (GPT), gamma-glutamyl transferase (GGT), glucose, cholesterol, triglycerides, calcium, sodium, potassium, chloride and total protein.\n(§5) Measurements were performed with the following test substances (corresponding values for the control=100%): […]"}, "Male Wistar rats [2]": {"system": "Male Wistar rats", "assay": "Haematology (WBC, RBC) after 7-day intragastral treatment of rats", "format": "in vivo, rat", "procedure": "as §1, §2, §3, §4\nerythrocytes (RBC), leucocytes (WBC), platelets (PLT), hemoglobin (HGB), hematocrit (HCT)\nBy means of the fully automated hematology analyzer Sysmex K-1000, the following were determined: WBC, RBC, PLT as well as HGB and HCT, further MCV, MCH and MCHC. The main unit of this device essentially consists of a hydraulic (HS) and an electronic (ES) system. The HS is used for sucking, pipetting, diluting, mixing and lysing. The ES analyzes and converts the signals from the HS and submits the results to the printer. With the aid of microprocessors, the ES also monitors the test runs, the testing station, and performs a quality control.\nThe hematocrit value corresponds to the percent volume fraction of erythrocytes in blood. In addition to the number of erythrocytes and the hematocrit value, the level of hemoglobin, the chromoprotein contained in the erythrocytes, is an important criterion for the diagnostics of anemias. Classification is performed by the erythrocyte indices. Erythrocyte size and hemoglobin content are characterized by the erythrocyte volume (MCV=mean corpuscular volume), the hemoglobin content of the erythrocytes (MCH=mean corpuscular hemoglobin), and the mean corpuscular hemoglobin concentration (MCHC). The erythrocyte distribution width (RDW=red cell distribution width) is a measure of anisocytosis.\nas §5"}, "[3]": {"system": "healthy females in post-menopause", "conditions": "two-year study, 361 healthy females in post-menopause; cited from earlier work"}, "Male Wistar rats [4]": {"system": "Male Wistar rats", "assay": "Leucocyte/lymphocyte differentiation by flow cytometry after 7-day treatment of rats", "format": "in vivo, rat", "procedure": "as §1, §2, §3, §4\nThe leucocyte differentiation was performed using the flow cytometer FACScan following appropriate lysing of the whole blood sample (scattered light measurement).\nThe lymphocyte differentiation was performed after specific monoclonal incubation by means of fluorescence-activated cell sorting (fluorescence measurement).\nOn the 7th day of treatment, there were analyzed quantitatively:\nFor determining the phenotypes of the lymphocytes, they were incubated with the following antibodies of Pharmingen, San Diego (USA), to which a fluorochrome was coupled:\n5 μl each of the antibodies is incubated with 50 μl of Na-EDTA-blood at room temperature in the dark for 20 min. The suspension is agitated with 2 ml of Lyses Reagenz of Becton-Dickinson and incubated for 10 min as described. This followed by centrifuging at 400×g for 6 min, and the supernatant is poured off. The pellet is washed with 3 ml of Cell Wash and centrifuged at 400×g for 6 min. The pellet is taken up in 100 μl of Cell Wash. The suspension is analyzed by means of the flow cytometer.\nas §5"}, "Male Wistar rats [5]": {"system": "Male Wistar rats", "assay": "Histological examination of organs after 7-day treatment of rats", "conditions": "7 days", "procedure": "as §1, §2, §3, §4"}, "[6]": {"conditions": "change vs control (=100%), rats, 7 days intragastral, serum"}, "[7]": {"conditions": "change vs control (=100%), rats, intragastral once daily for 7 days, peripheral blood"}, "[8]": {"conditions": "change vs control (=100%), rats, 7th day of treatment, peripheral blood"}}, "note": "Values joined by “and” are separate entries in the source; they are usually repeats but may differ in a detail not shown here. Equal values may be shown once. “Also recorded” adds a separate entry of the source.", "data": [{"smiles": "O=C([O-])[O-].[Ca+2]", "note": "[CC, Calcium carbonate]", "values": [{"measurement": "Ca", "setting": "Male Wistar rats [1]; [6]", "result": "unch."}, {"measurement": "AP (alkaline phosphatase)", "setting": "Male Wistar rats [1]; rat, in vivo", "result": "+5.5%"}, {"measurement": "GLDH", "setting": "Male Wistar rats [1]; rat, in vivo", "result": "+6.7%"}, {"measurement": "GOT", "setting": "Male Wistar rats [1]; rat, in vivo", "result": "−7.1", "unit": "%"}, {"measurement": "GPT", "setting": "Male Wistar rats [1]; rat, in vivo", "result": "unch."}, {"measurement": "SP (acid phosphatase)", "setting": "Male Wistar rats [1]; rat, in vivo", "result": "unch."}, {"measurement": "bilirubin", "setting": "Male Wistar rats [1]; rat, in vivo", "result": "−17.3", "unit": "%"}, {"measurement": "cholesterol", "setting": "Male Wistar rats [1]; rat, in vivo", "result": "unch."}, {"measurement": "creatinin", "setting": "Male Wistar rats [1]; rat, in vivo", "result": "−19.7", "unit": "%"}, {"measurement": "glucose", "setting": "Male Wistar rats [1]; rat, in vivo", "result": "+6.7%"}, {"measurement": "triglycerides", "setting": "Male Wistar rats [1]; rat, in vivo", "result": "−7.8", "unit": "%"}, {"measurement": "urea", "setting": "Male Wistar rats [1]; rat, in vivo", "result": "−13.9", "unit": "%"}, {"measurement": "RBC (number of erythrocytes)", "setting": "Male Wistar rats [2]; rat, in vivo", "result": "not increased"}, {"measurement": "inhibitory influence on bone mass losses", "setting": "[3]", "result": "only a slightly pronounced inhibitory influence"}, {"measurement": "B lymphocytes", "setting": "Male Wistar rats [4]; rat, in vivo", "result": "+7.6%"}, {"measurement": "T lymphocytes", "setting": "Male Wistar rats [4]; rat, in vivo", "result": "unch."}, {"measurement": "chemoprotective effect", "setting": "Male Wistar rats [4]; rat, in vivo", "result": "neither showed positive effects in clinically healthy rats nor chemoprotective effects"}, {"measurement": "helper lymphocytes", "setting": "Male Wistar rats [4]; rat, in vivo", "result": "−4.3", "unit": "%"}, {"measurement": "lymphocytes", "setting": "Male Wistar rats [4]; rat, in vivo", "result": "unch."}, {"measurement": "polymorphs (polymorphonuclear granulocytes)", "setting": "Male Wistar rats [4]; rat, in vivo", "result": "unch."}, {"measurement": "supp. lymphocytes", "setting": "Male Wistar rats [4]; rat, in vivo", "result": "+12.4%"}]}, {"smiles": "O=P1(N(CCCl)CCCl)NCCCO1", "note": "(stereo not drawn) [CyS, Cyclophosphamide]", "values": [{"measurement": "AP (alkaline phosphatase)", "setting": "Male Wistar rats [1]; [6]", "result": "−14.7", "unit": "%"}, {"measurement": "Ca", "setting": "Male Wistar rats [1]; [6]", "result": "−23.2", "unit": "%"}, {"measurement": "GLDH", "setting": "Male Wistar rats [1]; [6]", "result": "−21.3", "unit": "%"}, {"measurement": "GOT", "setting": "Male Wistar rats [1]; [6]", "result": "−24.6", "unit": "%"}, {"measurement": "GPT", "setting": "Male Wistar rats [1]; [6]", "result": "−30.8", "unit": "%"}, {"measurement": "SP (acid phosphatase)", "setting": "Male Wistar rats [1]; [6]", "result": "−9.1", "unit": "%"}, {"measurement": "bilirubin", "setting": "Male Wistar rats [1]; [6]", "result": "+58.6%"}, {"measurement": "cholesterol", "setting": "Male Wistar rats [1]; [6]", "result": "−25", "unit": "%"}, {"measurement": "creatinin", "setting": "Male Wistar rats [1]; [6]", "result": "−28.3", "unit": "%"}, {"measurement": "glucose", "setting": "Male Wistar rats [1]; [6]", "result": "+5.2%"}, {"measurement": "triglycerides", "setting": "Male Wistar rats [1]; [6]", "result": "+10.1%"}, {"measurement": "urea", "setting": "Male Wistar rats [1]; [6]", "result": "unch."}, {"measurement": "WBC (number of leucocytes)", "setting": "Male Wistar rats [2]; [7]", "result": "−51.3", "unit": "%"}, {"measurement": "erythrocytes in thorn-apple form (acanthocytes) in bone marrow sinuses", "setting": "Male Wistar rats [5]", "result": "encountered"}, {"measurement": "B lymphocytes", "setting": "Male Wistar rats [4]; [8]", "result": "−79.9", "unit": "%"}, {"measurement": "T lymphocytes", "setting": "Male Wistar rats [4]; [8]", "result": "−51% and −51.9%"}, {"measurement": "helper lymphocytes", "setting": "Male Wistar rats [4]; [8]", "result": "−45.9", "unit": "%"}, {"measurement": "lymphocytes", "setting": "Male Wistar rats [4]; [8]", "result": "−55.0", "unit": "%"}, {"measurement": "polymorphs (polymorphonuclear granulocytes)", "setting": "Male Wistar rats [4]; [8]", "result": "−28.1", "unit": "%"}, {"measurement": "supp. lymphocytes", "setting": "Male Wistar rats [4]; [8]", "result": "−30.9", "unit": "%"}]}, {"smiles": "NS(=O)(=O)c1cc(C(=O)O)c(NCc2ccco2)cc1Cl", "note": "[FUR, Furosemide]", "values": [{"measurement": "AP (alkaline phosphatase)", "setting": "Male Wistar rats [1]; [6]", "result": "−13.4", "unit": "%"}, {"measurement": "Ca", "setting": "Male Wistar rats [1]; [6]", "result": "−28.9", "unit": "%"}, {"measurement": "GLDH", "setting": "Male Wistar rats [1]; [6]", "result": "−31.3", "unit": "%"}, {"measurement": "GOT", "setting": "Male Wistar rats [1]; [6]", "result": "unch."}, {"measurement": "GPT", "setting": "Male Wistar rats [1]; [6]", "result": "−24.4", "unit": "%"}, {"measurement": "bilirubin", "setting": "Male Wistar rats [1]; [6]", "result": "+20.7%"}, {"measurement": "cholesterol", "setting": "Male Wistar rats [1]; [6]", "result": "−24.9", "unit": "%"}, {"measurement": "creatinin", "setting": "Male Wistar rats [1]; [6]", "result": "−49.7", "unit": "%"}, {"measurement": "glucose", "setting": "Male Wistar rats [1]; [6]", "result": "unch."}, {"measurement": "triglycerides", "setting": "Male Wistar rats [1]; [6]", "result": "−29.6", "unit": "%"}, {"measurement": "urea", "setting": "Male Wistar rats [1]; [6]", "result": "−7.3", "unit": "%"}, {"measurement": "RBC (number of erythrocytes)", "setting": "Male Wistar rats [2]; [7]", "result": "unchanged"}, {"measurement": "WBC (number of leucocytes)", "setting": "Male Wistar rats [2]; [7]", "result": "+61.0%"}, {"measurement": "T lymphocytes", "setting": "Male Wistar rats [4]; [8]", "result": "+46.2%"}, {"measurement": "helper lymphocytes", "setting": "Male Wistar rats [4]; [8]", "result": "+41.5%"}, {"measurement": "lymphocytes", "setting": "Male Wistar rats [4]; [8]", "result": "+60.5%"}, {"measurement": "supp. lymphocytes", "setting": "Male Wistar rats [4]; [8]", "result": "unch."}]}, {"smiles": "[F-].[Na+]", "note": "[NF, Sodium fluoride]", "values": [{"measurement": "AP (alkaline phosphatase)", "setting": "Male Wistar rats [1]; [6]", "result": "unch."}, {"measurement": "Ca", "setting": "Male Wistar rats [1]; [6]", "result": "unch."}, {"measurement": "GLDH", "setting": "Male Wistar rats [1]; [6]", "result": "−17.3", "unit": "%"}, {"measurement": "GOT", "setting": "Male Wistar rats [1]; [6]", "result": "−9.8", "unit": "%"}, {"measurement": "GPT", "setting": "Male Wistar rats [1]; [6]", "result": "−9.7", "unit": "%"}, {"measurement": "SP (acid phosphatase)", "setting": "Male Wistar rats [1]; [6]", "result": "−7.5", "unit": "%"}, {"measurement": "bilirubin", "setting": "Male Wistar rats [1]; [6]", "result": "+13.8%"}, {"measurement": "cholesterol", "setting": "Male Wistar rats [1]; [6]", "result": "−8.7", "unit": "%"}, {"measurement": "creatinin", "setting": "Male Wistar rats [1]; [6]", "result": "−20.7", "unit": "%"}, {"measurement": "glucose", "setting": "Male Wistar rats [1]; [6]", "result": "+15.7%"}, {"measurement": "triglycerides", "setting": "Male Wistar rats [1]; [6]", "result": "−4.2", "unit": "%"}, {"measurement": "urea", "setting": "Male Wistar rats [1]; [6]", "result": "−13.2", "unit": "%"}, {"measurement": "WBC (number of leucocytes)", "setting": "Male Wistar rats [2]; [7]", "result": "+13.8%"}, {"measurement": "T lymphocytes", "setting": "Male Wistar rats [4]; [8]", "result": "did not induce an effect; also recorded: unch"}, {"measurement": "helper lymphocytes", "setting": "Male Wistar rats [4]; [8]", "result": "did not induce an effect; also recorded: unch"}, {"measurement": "lymphocytes", "setting": "Male Wistar rats [4]; [8]", "result": "unch."}, {"measurement": "supp. lymphocytes", "setting": "Male Wistar rats [4]; [8]", "result": "did not induce an effect; also recorded: unch"}]}]}
